Source: ChEMBL document CHEMBL1126937, “Synthesis of new 11 beta-substituted spirolactone derivatives. Relationship with affinity for mineralocorticoid and glucocorticoid receptors” (J Med Chem, 1993)

molecular target: T1, Mineralocorticoid receptor (Homo sapiens) (UniProt P08235); assay: Displacement of [3H]aldosterone from mineralocorticoid receptor of rabbit kidney; conditions: Oryctolagus cuniculus; target entry is the homologue from another species
T1 sequence (whole entry): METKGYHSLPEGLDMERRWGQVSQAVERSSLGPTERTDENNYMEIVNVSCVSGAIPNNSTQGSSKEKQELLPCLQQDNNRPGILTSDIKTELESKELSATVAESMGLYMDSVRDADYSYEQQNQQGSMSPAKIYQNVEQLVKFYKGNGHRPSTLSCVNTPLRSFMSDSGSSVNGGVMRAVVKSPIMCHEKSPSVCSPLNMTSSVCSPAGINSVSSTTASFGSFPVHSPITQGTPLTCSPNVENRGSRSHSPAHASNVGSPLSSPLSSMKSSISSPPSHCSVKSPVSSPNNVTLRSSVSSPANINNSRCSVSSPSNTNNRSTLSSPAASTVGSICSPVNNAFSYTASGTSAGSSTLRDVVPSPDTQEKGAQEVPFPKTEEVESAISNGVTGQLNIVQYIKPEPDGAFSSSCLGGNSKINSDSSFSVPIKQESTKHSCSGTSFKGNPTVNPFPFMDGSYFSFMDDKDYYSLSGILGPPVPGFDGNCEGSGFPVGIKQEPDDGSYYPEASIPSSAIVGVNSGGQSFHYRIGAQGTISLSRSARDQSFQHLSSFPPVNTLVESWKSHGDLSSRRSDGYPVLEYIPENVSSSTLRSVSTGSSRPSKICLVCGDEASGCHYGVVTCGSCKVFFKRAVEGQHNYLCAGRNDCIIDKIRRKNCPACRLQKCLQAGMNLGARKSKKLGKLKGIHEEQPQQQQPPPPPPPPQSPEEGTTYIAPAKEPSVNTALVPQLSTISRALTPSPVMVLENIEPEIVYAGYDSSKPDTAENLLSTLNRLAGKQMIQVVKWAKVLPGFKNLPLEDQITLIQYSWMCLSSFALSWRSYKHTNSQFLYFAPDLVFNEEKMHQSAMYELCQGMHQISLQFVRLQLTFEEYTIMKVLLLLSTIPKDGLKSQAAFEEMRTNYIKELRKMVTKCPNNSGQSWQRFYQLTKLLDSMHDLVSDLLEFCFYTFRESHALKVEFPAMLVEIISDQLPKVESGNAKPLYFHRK

Question: C=C=C[C@H]1C[C@@]2(C)C(CC[C@@]23CCC(=O)O3)C2CCC3=CC(=O)CCC3=C21 (some centres undefined) was tested. Which RBA did it give?
Answer: 110%

Question: Which RBA does the source give for CC(=O)S[C@@H]1CC2=CC(=O)C=C[C@]2(C)[C@H]2CC[C@@]3(C)[C@@H]([C@@H]4C[C@@H]4[C@@]34CCC(=O)O4)[C@H]12 here?
Answer: 21%

Question: Which RBA does the source give for COCCC[C@H]1C[C@@]2(C)C(CC[C@@]23CCC(=O)O3)C2CCC3=CC(=O)CCC3=C21 (some centres undefined) here?
Answer: 0.5%

Question: C[C@]12CCC(=O)C=C1C=C[C@@H]1[C@@H]2CC[C@@]2(C)[C@H]1CC[C@@]21CCC(=O)O1 was tested. Which RBA did it give?
Answer: 1%

Question: How did the RBA turn out when C[C@@H]1C[C@H]2[C@@H]3CCC4=CC(=O)C=C[C@]4(C)[C@@]3(F)[C@@H](O)C[C@]2(C)[C@@]1(O)C(=O)CO was run?
Answer: 20%

Question: With CC(C)(C)OCCC[C@H]1C[C@@]2(C)C(CC[C@@]23CCC(=O)O3)C2CCC3=CC(=O)CCC3=C21 (some centres undefined) as the compound, how does the RBA read?
Answer: < 0.1%

Question: For C[C@H]1C[C@@]2(C)C(CC[C@@]23CCC(=O)O3)C2CCC3=CC(=O)CCC3=C21 (some centres undefined), which RBA is on record?
Answer: 6%

Question: For C=C[C@H]1C[C@@]2(C)C(CC[C@@]23CCC(=O)O3)C2CCC3=CC(=O)CCC3=C21 (some centres undefined), which RBA is on record?
Answer: 14%

Question: With C[C@]12C[C@H](CCCO)C3=C4CCC(=O)C=C4CCC3C1CC[C@@]21CCC(=O)O1 (some centres undefined) as the compound, how does the RBA read?
Answer: < 0.1%

Question: For C/C=C1\C[C@@]2(C)C(CC[C@@]23CCC(=O)O3)C2CCC3=CC(=O)CCC3=C12 (some centres undefined), which RBA is on record?
Answer: 7%

Question: Which RBA does the source give for CC(=O)S[C@@H]1CC2=CC(=O)CC[C@]2(C)[C@H]2CC[C@@]3(C)[C@@H](CC[C@@]34CCC(=O)O4)[C@H]12 here?
Answer: 4%

Question: With C[C@]12CCC(=O)C=C1CC[C@@H]1[C@@H]2[C@@H](O)C[C@]2(C=O)[C@@H](C(=O)CO)CC[C@@H]12 as the compound, how does the RBA read?
Answer: 100%

Question: With C[C@]12CCC3=C4CCC(=O)C=C4CCC3C1CC[C@@]21CCC(=O)O1 (some centres undefined) as the compound, how does the RBA read?
Answer: 13%

Question: For C=C/C=C1\C[C@@]2(C)C(CC[C@@]23CCC(=O)O3)C2CCC3=CC(=O)CCC3=C12 (some centres undefined), which RBA is on record?
Answer: 2%
